The term IC50 denotes the concentration that inhibits the measured activity by half. Read a low IC50 as greater potency in that assay.

This is an account of results in ChEMBL document CHEMBL1148361, “Total synthesis and anti-tubulin activity of epi-c3 analogues of cryptophycin-24” (J Med Chem, 2004).

Assay [1] in a line: Resistance factor was expressed as the IC50 of resistance cell line / IC50 of sensitive cell line. In kind it is functional.
Assay [2] in a line: In vitro inhibitory activity of compound against microtubule polymerization in a tubulin assembly assay. In kind it is functional.
In another assay the test system is MCF7. Kind of assay: In vitro inhibitory activity of compound against induced cytotoxicity in MCF-7 cell line. It counts as functional, cell-based, Homo sapiens.
A further assay relates to NCI/ADR-RES. Kind of assay: In vitro inhibitory activity of compound against induced cytotoxicity in multidrug-resistant MCF-7/ADR breast cancer cell line. In kind it is functional, cell-based, Homo sapiens.

In turn, `COc1ccc(C[C@H]2NC(=O)/C=C/C[C@@H](C(C)[C@H]3O[C@@H]3c3ccccc3)OC(=O)[C@H](CC(C)C)OC(=O)CCNC2=O)cc1` (single isomer, unassigned) [ARENASTATIN A] came in with a Resistance factor in assay [1] of 1.9. For the same compound, the IC50 was 15800 nM in assay [2]; 0.13 nM in the assay on MCF7 (Homo sapiens, MCF7); 250 nM in the assay with NCI/ADR-RES (nci/adr-res).

With `COc1ccc(C[C@H]2NC(=O)/C=C/C[C@@H](C(C)[C@H]3O[C@@H]3c3ccccc3)OC(=O)C(CC(C)C)OC(=O)CCNC2=O)cc1` (single isomer, unassigned) [ARENASTATIN A], in assay [1], the Resistance factor came to 27.3. Moreover, the results for the IC50 (in assay [2]; in the assay with MCF7 (mcf7); with NCI/ADR-RES (nci/adr-res)) were 13700 nM, 88 nM and 2400 nM, respectively.

In the case of `COc1ccc(C[C@H]2NC(=O)/C=C/C[C@@H]([C@H](C)/C=C/c3ccccc3)OC(=O)[C@@H](CC(C)C)OC(=O)CCNC2=O)cc1`, the IC50 in assay [2] was over 100000 nM; with MCF7 (Homo sapiens, MCF7), over 25 nM; in the assay with NCI/ADR-RES (Homo sapiens, NCI/ADR-RES), over 25 nM.

For `COc1ccc(C[C@H]2NC(=O)/C=C/CC(C(C)C3OC3c3ccccc3)OC(=O)[C@@H](CC(C)C)OC(=O)CCNC2=O)cc1Cl` (single isomer, unassigned), the Resistance factor in assay [1] turned out to be 3.3. The IC50 was 10600 nM in assay [2]; 0.28 nM in the assay with MCF7 (Homo sapiens, MCF7); 0.92 nM with NCI/ADR-RES (Homo sapiens, NCI/ADR-RES).

As for `COc1ccc(C[C@H]2NC(=O)/C=C/C[C@@H]([C@H](C)[C@H]3O[C@@H]3c3ccccc3)OC(=O)[C@H](CC(C)C)OC(=O)[C@H](C)CNC2=O)cc1Cl` [CRYPTOPHYCIN A], the Resistance factor in assay [1] is recorded as 2. The IC50 amounted to 3400 nM in assay [2]; 0.009 nM in the assay on MCF7 (Homo sapiens, MCF7); 0.018 nM in the assay with NCI/ADR-RES (Homo sapiens, NCI/ADR-RES).

For the compound `COc1ccc(C[C@H]2NC(=O)/C=C/C[C@@H]([C@H](C)/C=C/c3ccccc3)OC(=O)[C@@H](CC(C)C)OC(=O)CCNC2=O)cc1Cl`, the IC50 was over 100000 nM in assay [2]; over 25 nM in the assay on MCF7 (Homo sapiens, MCF7); over 25 nM in the assay on NCI/ADR-RES (Homo sapiens, NCI/ADR-RES).
